In general, melting point refers to the temperature of the solid-liquid transition. Take `CC(C)n1nc(-c2c(-c3ccccc3)nn3ccc(Oc4ccncc4)cc23)ccc1=O` [Example 35, 5-(4-Pyridinyloxy)-3-(3-oxo-2-isopropyl-2,3-dihydropyridazin-6-yl)-2-phenylpyrazolo[1,5-a]pyridine]: the melting point was 218.5 to 219.5 °C.
In turn, `CC(=O)Nc1cccc(Oc2ccn3nc(-c4ccccc4)c(-c4ccc(=O)n(C(C)C)n4)c3c2)c1` [Example 36, N-(3-{[3-(3-oxo-2-isopropyl-2,3-dihydropyridazin-6-yl)-2-phenylpyrazolo[1,5-a]pyridin-5-yl]oxy}phenyl)acetamide] returned a melting point of 177.5 to 178.5 °C.
For `CC(C)n1nc(-c2c(-c3ccccc3)nn3ccc(Oc4ccccc4)cc23)ccc1=O` [Example 37, 5-Phenoxy-3-(3-oxo-2-isopropyl-2,3-dihydropyridazin-6-yl)-2-phenylpyrazolo[1,5-a]pyridine] the value was 181 to 182 °C; for `CCOC(=O)COc1ccn2nc(-c3ccccc3)c(-c3ccc(=O)n(C(C)C)n3)c2c1` [Example 38, Ethyl {[3-(3-oxo-2-isopropyl-2,3-dihydropyridazin-6-yl)-2-phenylpyrazolo[1,5-a]pyridin-5-yl]oxy}acetate], 193 to 194 °C.
For `CC(C)n1nc(-c2c(-c3ccccc3)nn3ccc(OCC(=O)N(C)C)cc23)ccc1=O` [Example 40, 2-{[3-(3-oxo-2-isopropyl-2,3-dihydropyridazin-6-yl)-2-phenylpyrazolo[1,5-a]pyridin-5-yl]oxy}-N,N-dimethylacetamide] the value was 189 to 190 °C; for `CCN(CC)C(=O)COc1ccn2nc(-c3ccccc3)c(-c3ccc(=O)n(C(C)C)n3)c2c1` [Example 41, N,N-Diethyl-2-{[3-(3-oxo-2-isopropyl-2,3-dihydropyridazin-6-yl)-2-phenylpyrazolo[1,5-a]pyridin-5-yl]oxy}acetamide], 125 to 126.5 °C; for `CC(C)n1nc(-c2c(-c3ccccc3)nn3ccc(OCC(=O)Nc4ccccc4)cc23)ccc1=O` [Example 44, 2-{[3-(3-Oxo-2-isopropyl-2,3-dihydropyridazin-6-yl)-2-phenylpyrazolo[1,5-a]pyridin-5-yl]oxy}-N-phenylacetamide], 208 to 209 °C.
The result for `CC(C)CNC(=O)COc1ccn2nc(-c3ccccc3)c(-c3ccc(=O)n(C(C)C)n3)c2c1` [Example 45, N-Isobutyl-2-{[3-(3-oxo-2-isopropyl-2,3-dihydropyridazin-6-yl)-2-phenylpyrazolo [1,5-a]pyridin-5-yl]oxy}acetamide] reads 167.5 to 168.5 °C.
Regarding `CC(C)n1nc(-c2c(-c3ccccc3)nn3ccc(OC4CCOCC4)cc23)ccc1=O` [Example 46, 5-(Tetrahydropyran-4-yl)oxy-3-(3-oxo-2-isopropyl-2,3-dihydropyridazin-6-yl)-2-phenylpyrazolo[1,5-a]pyridine], the melting point was in the range of 210.5 to 211 °C.
Turning to `COc1ccc(Oc2ccn3nc(-c4ccccc4)c(-c4ccc(=O)n(C(C)C)n4)c3c2)nc1` [Example 47, 5-[(5-Methoxy-2-pyridinyl)oxy]-3-(3-oxo-2-isopropyl-2,3-dihydropyridazin-6-yl)-2-phenylpyrazolo[1,5-a]pyridine], the melting point fell in the range of 148 to 150 °C.
Take `CC(C)n1nc(-c2c(-c3ccccc3)nn3ccc(Oc4ccc([N+](=O)[O-])cn4)cc23)ccc1=O` [Example 48, 5-[(5-Nitro-2-pyridinyl)oxy]-3-(3-oxo-2-isopropyl-2,3-dihydropyridazin-6-yl)-2-phenylpyrazolo[1,5-a]pyridine]: the melting point was in the range of 182 to 183.5 °C.
For `CC(C)n1nc(-c2c(-c3ccccc3)nn3ccc(OCC(=O)N4CCN(C(=O)N(C)C)CC4)cc23)ccc1=O` [Example 55, N,N-dimethyl-4-[{3-(3-oxo-2-isopropyl-2,3-dihydropyridazin-6-yl)-2-phenylpyrazolo[1,5-a]pyridin-5-yl}oxy]acetyl-1-piperazine carboxamide] the value was 151 to 152 °C.
For `CC(C)n1nc(-c2c(-c3ccccc3)nn3ccc(OC4CCN(C(=O)N(C)C)CC4)cc23)ccc1=O` [Example 56, N,N-Dimethyl-4-[{3-(3-oxo-2-isopropyl-2,3-dihydropyridazin-6-yl)-2-phenylpyrazolo[1,5-a]pyridin-5-yl}oxy]-1-piperidine carboxamide], the melting point was 164 to 166 °C.
The result for `CC(C)n1nc(-c2c(-c3ccccc3)nn3ccc(OCC(=O)NCCN(C)C)cc23)ccc1=O` [Example 58, N-[2-(dimethylamino)ethyl]-2-{[3-(3-oxo-2-isopropyl-2,3-dihydropyridazin-6-yl)-2-phenylpyrazolo[1,5-a]pyridin-5-yl]oxy}acetamide] reads 117 to 119 °C.
The result for `COc1cccc(CNC(=O)COc2ccn3nc(-c4ccccc4)c(-c4ccc(=O)n(C(C)C)n4)c3c2)c1` [Example 59, 2-{[3-(3-Oxo-2-isopropyl-2,3-dihydropyridazin-6-yl)-2-phenylpyrazolo[1,5-a]pyridin-5-yl]oxy}-N-(3-methoxybenzyl)acetamide] reads 166 to 167.5 °C; that for `CC(C)n1nc(-c2c(-c3ccccc3)nn3ccc(OCC(=O)NCCc4ccccn4)cc23)ccc1=O` [Example 60, 2-{[3-(3-oxo-2-isopropyl-2,3-dihydropyridazin-6-yl)-2-phenylpyrazolo[1,5-a)pyridin-5-yl]oxy}-N-[2-(2-pyridinyl)-ethyl]acetamide], 188 to 190 °C.
For `CC(C)n1nc(-c2c(-c3ccccc3)nn3ccc(OCC(=O)NC4CC4)cc23)ccc1=O` [Example 61, N-Cyclopropyl-2-{[3-(3-oxo-2-isopropyl-2,3-dihydropyridazin-6-yl)-2-phenylpyrazolo[1,5-a]pyridin-5-yl]oxy}acetamide] the value was 199 to 200 °C; for `CC(C)n1nc(-c2c(-c3ccccc3)nn3ccc(OCC(=O)NC4CCCC4)cc23)ccc1=O` [Example 62, N-Cyclopentyl-2-{[3-(3-oxo-2-isopropyl-2,3-dihydropyridazin-6-yl)-2-phenylpyrazolo[1,5-a]pyridin-5-yl]oxy}acetamide], 187 to 188 °C.
`CC(C)n1nc(-c2c(-c3ccccc3)nn3ccc(OCC(=O)NC4CCCCC4)cc23)ccc1=O` [Example 63, N-Cyclohexyl-2-{[3-(3-oxo-2-isopropyl-2,3-dihydropyridazin-6-yl)-2-phenylpyrazolo[1,5-a]pyridin-5-yl]oxy}acetamide] returned a melting point of 170 to 171.5 °C.
The result for `CC(C)n1nc(-c2c(-c3ccccc3)nn3ccc(OCC(=O)NC4CCC(O)CC4)cc23)ccc1=O` (stereo not shown) [Example 64, N-(4-Hydroxycyclohexyl)-2-{[3-(3-oxo-2-isopropyl-2,3-dihydropyridazin-6-yl)-2-phenylpyrazolo[1,5-a]pyridin-5-yl]oxy}acetamide] reads 146 to 148 °C; that for `CCCCNC(=O)COc1ccn2nc(-c3ccccc3)c(-c3ccc(=O)n(C(C)C)n3)c2c1` [Example 65, N-Butyl-2-{[3-(3-oxo-2-isopropyl-2,3-dihydropyridazin-6-yl)-2-phenylpyrazolo[1,5-a]pyridin-5-yl]oxy}acetamide], 151 to 152 °C; that for `COCCNC(=O)COc1ccn2nc(-c3ccccc3)c(-c3ccc(=O)n(C(C)C)n3)c2c1` [Example 66, N-(2-Methoxyethyl)-2-[{3-(3-oxo-2-isopropyl-2,3-dihydropyridazin-6-yl)-2-phenylpyrazolo[1,5-a]pyridin-5-yl}oxy]acetamide], 144.5 to 145.5 °C.

The record behind these values is patent US20040110763A1, “Pyrazolopyridine compound and pharmaceutical use thereof” (priority 2000, published 2004).
